Results reported in the supplement of paper PMC10883282.

Tests used:
Assay in all cases: relative viability vs DMSO control (72 h) (fraction); higher = more viable cells
RD-ES = test system: RD-ES
Outline: (§1)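 ATPLite readings, expressed as percent growth and averaged over up to triplicate wells, provided relative viability. Before reading, sarcoma cell lines seeded in 384-well plates to reach 80–90% confluence received 2.5 µl of serially diluted compound after 24 h, from source plates of 10 mM to 0.0002 mM. Plates were held 72 h at 37 °C, 5% CO2, with 0.1% DMSO as vehicle and a 5 µM positive control. The data were rescaled to 1 for full and 0 for none.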

HS729 = test system: HS729
Outline: as §1

RD = test system: RD
Outline: as §1

HT1080 = test system: HT1080
Outline: as §1

SW684 = test system: SW684
Outline: as §1

SW1353 = test system: SW1353
Outline: as §1

KHOS-240S = test system: KHOS-240S
Outline: as §1

SYO-1 = test system: SYO-1
Outline: as §1

KHOS-NP = test system: KHOS-NP
Outline: as §1

SW872 = test system: SW872
Outline: as §1

SK-LMS-1 = test system: SK-LMS-1
Outline: as §1

G401 = test system: G401
Outline: as §1

CCc1nc(C(N)=O)c(Nc2ccc(N3CCC(N4CCN(C)CC4)CC3)c(OC)c2)nc1NC1CCOCC1 [Gilteritinib]
Settings | relative viability
G401, 60 pM | 1.03
G401, 0.00018 µM | 0.985
G401, 0.00053 µM | 0.968
G401, 0.0016 µM | 0.998
G401, 0.0048 µM | 0.981
G401, 0.014 µM | 0.979
G401, 0.043 µM | 0.971
G401, 0.13 µM | 0.851
G401, 0.389 µM | 0.661
G401, 1.167 µM | 0.478
G401, 3.5 µM | 0.457
HS729, 60 pM | 0.9885
HS729, 0.00018 µM | 0.928
HS729, 0.00053 µM | 0.924
HS729, 0.0016 µM | 0.875
HS729, 0.0048 µM | 0.828
HS729, 0.014 µM | 0.797
HS729, 0.043 µM | 0.74
HS729, 0.13 µM | 0.63
HS729, 0.389 µM | 0.47
HS729, 1.167 µM | 0.357
HS729, 3.5 µM | 0.322
HT1080, 60 pM | 1.08
HT1080, 0.00018 µM | 1.032
HT1080, 0.00053 µM | 0.999
HT1080, 0.0016 µM | 1.04
HT1080, 0.0048 µM | 1.07
HT1080, 0.014 µM | 1.05
HT1080, 0.043 µM | 1.05
HT1080, 0.13 µM | 1.05
HT1080, 0.389 µM | 1
HT1080, 1.167 µM | 0.6791
HT1080, 3.5 µM | 0.595
KHOS-240S, 60 pM | 1.08
KHOS-240S, 0.00018 µM | 1.06
KHOS-240S, 0.00053 µM | 1.08
KHOS-240S, 0.0016 µM | 1.04
KHOS-240S, 0.0048 µM | 1.08
KHOS-240S, 0.014 µM | 1.02
KHOS-240S, 0.043 µM | 0.985
KHOS-240S, 0.13 µM | 0.913
KHOS-240S, 0.389 µM | 0.848
KHOS-240S, 1.167 µM | 0.509
KHOS-240S, 3.5 µM | 0.398
KHOS-NP, 60 pM | 1.08
KHOS-NP, 0.00018 µM | 1.12
KHOS-NP, 0.00053 µM | 1.07
KHOS-NP, 0.0016 µM | 1.1
KHOS-NP, 0.0048 µM | 1.061
KHOS-NP, 0.014 µM | 1.06
KHOS-NP, 0.043 µM | 1.03
KHOS-NP, 0.13 µM | 1.02
KHOS-NP, 0.389 µM | 0.959
KHOS-NP, 1.167 µM | 0.83
KHOS-NP, 3.5 µM | 0.695
RD, 60 pM | 1.06
RD, 0.00018 µM | 1.06
RD, 0.00053 µM | 1.07
RD, 0.0016 µM | 1.08
RD, 0.0048 µM | 1.08
RD, 0.014 µM | 1.07
RD, 0.043 µM | 1.01
RD, 0.13 µM | 0.829
RD, 0.389 µM | 0.516
RD, 1.167 µM | 0.363
RD, 3.5 µM | 0.32
RD-ES, 60 pM | 0.986
RD-ES, 0.00018 µM | 0.961
RD-ES, 0.00053 µM | 0.9574
RD-ES, 0.0016 µM | 0.968
RD-ES, 0.0048 µM | 0.963
RD-ES, 0.014 µM | 0.938
RD-ES, 0.043 µM | 0.88
RD-ES, 0.13 µM | 0.687
RD-ES, 0.389 µM | 0.316
RD-ES, 1.167 µM | 0.11
RD-ES, 3.5 µM | 0.14
SK-LMS-1, 60 pM | 1.03
SK-LMS-1, 0.00018 µM | 1.01
SK-LMS-1, 0.00053 µM | 1.01
SK-LMS-1, 0.0016 µM | 1.03
SK-LMS-1, 0.0048 µM | 0.985
SK-LMS-1, 0.014 µM | 1.018
SK-LMS-1, 0.043 µM | 0.977
SK-LMS-1, 0.13 µM | 0.929
SK-LMS-1, 0.389 µM | 0.765
SK-LMS-1, 1.167 µM | 0.504
SK-LMS-1, 3.5 µM | 0.398
SW684, 60 pM | 1.08
SW684, 0.00018 µM | 1.13
SW684, 0.00053 µM | 1.11
SW684, 0.0016 µM | 1.14
SW684, 0.0048 µM | 1.15
SW684, 0.014 µM | 1.13
SW684, 0.043 µM | 1.09
SW684, 0.13 µM | 0.889
SW684, 0.389 µM | 0.633
SW684, 1.167 µM | 0.506
SW684, 3.5 µM | 0.491
SW872, 60 pM | 1.03
SW872, 0.00018 µM | 1.01
SW872, 0.00053 µM | 1.01
SW872, 0.0016 µM | 1.01
SW872, 0.0048 µM | 0.98
SW872, 0.014 µM | 0.949
SW872, 0.043 µM | 0.905
SW872, 0.13 µM | 0.787
SW872, 0.389 µM | 0.493
SW872, 1.167 µM | 0.341
SW872, 3.5 µM | 0.305
SW1353, 60 pM | 1.04
SW1353, 0.00018 µM | 1.04
SW1353, 0.00053 µM | 1
SW1353, 0.0016 µM | 1
SW1353, 0.0048 µM | 0.932
SW1353, 0.014 µM | 0.955
SW1353, 0.043 µM | 0.972
SW1353, 0.13 µM | 0.896
SW1353, 0.389 µM | 0.779
SW1353, 1.167 µM | 0.65
SW1353, 3.5 µM | 0.617
SYO-1, 60 pM | 0.959
SYO-1, 0.00018 µM | 0.921
SYO-1, 0.00053 µM | 0.915
SYO-1, 0.0016 µM | 0.848
SYO-1, 0.0048 µM | 0.815
SYO-1, 0.014 µM | 0.791
SYO-1, 0.043 µM | 0.734
SYO-1, 0.13 µM | 0.637
SYO-1, 0.389 µM | 0.481
SYO-1, 1.167 µM | 0.389
SYO-1, 3.5 µM | 0.369
